# Experimental data as given in patent US6355799B1, “Substituted benzene compounds, process for their preparation, and herbicidal and defoliant compositions containing them” (ISK Americas Incorporated, priority 1997, dated 2002).
# What was measured:
# Type in all cases: in vivo
# [1] = test system: field corn (Zea mays L., var. Dekalb 535, CORN); assay: Pre-emerge test, crop safety; conditions: rating scale 0-100, 14 days after application
# Summary of the method: (§1)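 Applied at 15–1000 g ai/ha from acetone in 187 l/ha spray volume. Post-emergence applications included 0.25% v/v non-ionic surfactant and reached plants sown 8–21 days before. Pre-emergence applications were incorporated by surface watering. Efficacy or crop damage was rated on a 0–100 scale after 14 days.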
# [2] = test system: upland rice (Oryza sp., var. Tebonnet, RICE); assay: Pre-emerge test, crop safety; conditions: rating scale 0-100, 14 days after application
# Summary of the method: as §1
# [3] = test system: johnsongrass (Sorghum halepense, SORHA); assay: Post-emerge test, greenhouse herbicide activity screening; conditions: rating scale 0-100 (0 no damage, 100 complete death), 14 days after application
# Summary of the method: (§2)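 Compounds in acetone were track-sprayed at 187 l/ha, 15–1000 g ai/ha, onto sandy loam pots. Pre-emerge seeds were sown one day before spraying, with surface watering afterwards. Post-emerge plants were at the 2–3 leaf stage and sprayed with 0.25% v/v non-ionic surfactant. Injury was rated 0–100 at 14 days.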
# [4] = test system: large crabgrass (Digitaria sanguinalis, DIGSA); assay: as above; conditions: rating scale 0-100 (0 no damage, 100 complete death), 14 days after application
# Summary of the method: as §2
# [5] = test system: green foxtail (Setaria viridis, SETVI); assay: as above; conditions: rating scale 0-100 (0 no damage, 100 complete death), 14 days after application
# Summary of the method: as §2
# [6] = test system: sicklepod (Cassia obtusifolia, CASOB); assay: as above; conditions: rating scale 0-100 (0 no damage, 100 complete death), 14 days after application
# Summary of the method: as §2
# [7] = test system: common ragweed (Ambrosia artemisizfolia L., AMBEL); assay: as above; conditions: rating scale 0-100 (0 no damage, 100 complete death), 14 days after application
# Summary of the method: as §2
# [8] = test system: barnyardgrass (Echinochloa crus-galli, ECHCG); assay: as above; conditions: rating scale 0-100 (0 no damage, 100 complete death), 14 days after application
# Summary of the method: as §2
# [9] = test system: redroot pigweed (Amaranthus retroflexus, AMARE); assay: as above; conditions: rating scale 0-100 (0 no damage, 100 complete death), 14 days after application
# Summary of the method: as §2
# [10] = test system: velvetleaf (Abutilon theophrasti, ABUTH); assay: as above; conditions: rating scale 0-100 (0 no damage, 100 complete death), 14 days after application
# Summary of the method: as §2
# [11] = test system: lambsquarters (Chenopodium album, CHEAL); assay: as above; conditions: rating scale 0-100 (0 no damage, 100 complete death), 14 days after application
# Summary of the method: as §2
# [12] = test system: ivyleaf morningglory (Ipomoea hederacea, IPOHE); assay: as above; conditions: rating scale 0-100 (0 no damage, 100 complete death), 14 days after application
# Summary of the method: as §2
# [13] = test system: field corn (Zea mays L., var. Dekalb 535, CORN); assay: Post-emerge test, crop safety; conditions: rating scale 0-100 (0 no damage, 100 complete death), 14 days after application
# Summary of the method: as §2
# [14] = test system: upland rice (Oryza sp., var. Tebonnet, RICE); assay: Post-emerge test, crop safety; conditions: rating scale 0-100 (0 no damage, 100 complete death), 14 days after application
# Summary of the method: as §2
# [15] = test system: redroot pigweed (Amaranthus retroflexus, AMARE); assay: Pre-emerge test, greenhouse herbicide activity screening; conditions: rating scale 0-100, 14 days after application
# Summary of the method: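 Herbicidal damage is scored 0 (none) to 100 (complete plant death) two weeks after a simulated field spray. Rates span 15–1000 g ai/ha, delivered in acetone at 187 l/ha. For post-emergence treatments, plants have 2–3 leaves and the spray carries 0.25% v/v non-ionic surfactant.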
# [16] = test system: johnsongrass (Sorghum halepense, SORHA); assay: as above; conditions: rating scale 0-100, 14 days after application
# Summary of the method: as §2
# [17] = test system: large crabgrass (Digitaria sanguinalis, DIGSA); assay: as above; conditions: rating scale 0-100, 14 days after application
# Summary of the method: as §2
# [18] = test system: green foxtail (Setaria viridis, SETVI); assay: as above; conditions: rating scale 0-100, 14 days after application
# Summary of the method: as §2
# [19] = test system: sicklepod (Cassia obtusifolia, CASOB); assay: as above; conditions: rating scale 0-100, 14 days after application
# Summary of the method: as §2
# [20] = test system: common ragweed (Ambrosia artemisizfolia L., AMBEL); assay: as above; conditions: rating scale 0-100, 14 days after application
# Summary of the method: as §2
# [21] = test system: barnyardgrass (Echinochloa crus-galli, ECHCG); assay: as above; conditions: rating scale 0-100, 14 days after application
# Summary of the method: as §2
# [22] = test system: velvetleaf (Abutilon theophrasti, ABUTH); assay: as above; conditions: rating scale 0-100, 14 days after application
# Summary of the method: as §2
# [23] = test system: lambsquarters (Chenopodium album, CHEAL); assay: as above; conditions: rating scale 0-100, 14 days after application
# Summary of the method: as §2
# [24] = test system: ivyleaf morningglory (Ipomoea hederacea, IPOHE); assay: as above; conditions: rating scale 0-100, 14 days after application
# Summary of the method: as §2
compound,measurement,setting,value
COc1c(Cl)cc(F)c(-n2c(=O)cc(C(F)(F)F)n(C)c2=O)c1CC(Cl)C(=O)OC(C)(C)C (stereo not drawn) [14-18],"Pre-emerge phytotoxicity rating, crop damage CORN",[1]; 63 g ai/ha,0
same,"Pre-emerge phytotoxicity rating, crop damage CORN",[1]; 250 g ai/ha,0
same,"Pre-emerge phytotoxicity rating, crop damage RICE",[2]; 63 g ai/ha,0
same,"Pre-emerge phytotoxicity rating, crop damage RICE",[2]; 250 g ai/ha,10
same,"Post-emerge Herbicidal Activity, phytotoxicity rating SORHA",[3]; Rate 63 g ai/ha,10
same,"Post-emerge Herbicidal Activity, phytotoxicity rating SORHA",[3]; Rate 250 g ai/ha,30
same,"Post-emerge Herbicidal Activity, phytotoxicity rating DIGSA",[4]; Rate 63 g ai/ha,20
same,"Post-emerge Herbicidal Activity, phytotoxicity rating DIGSA",[4]; Rate 250 g ai/ha,60
same,"Post-emerge Herbicidal Activity, phytotoxicity rating SETVI",[5]; Rate 63 g ai/ha,10
same,"Post-emerge Herbicidal Activity, phytotoxicity rating SETVI",[5]; Rate 250 g ai/ha,20
same,"Post-emerge Herbicidal Activity, phytotoxicity rating CASOB",[6]; Rate 63 g ai/ha,20
same,"Post-emerge Herbicidal Activity, phytotoxicity rating CASOB",[6]; Rate 250 g ai/ha,60
same,"Post-emerge Herbicidal Activity, phytotoxicity rating AMBEL",[7]; Rate 63 g ai/ha,0
same,"Post-emerge Herbicidal Activity, phytotoxicity rating AMBEL",[7]; Rate 250 g ai/ha,10
same,"Post-emerge Herbicidal Activity, phytotoxicity rating ECHCG",[8]; Rate 63 g ai/ha,99
same,"Post-emerge Herbicidal Activity, phytotoxicity rating ECHCG",[8]; Rate 250 g ai/ha,100
same,"Post-emerge Herbicidal Activity, phytotoxicity rating AMARE",[9]; Rate 63 g ai/ha,100
same,"Post-emerge Herbicidal Activity, phytotoxicity rating AMARE",[9]; Rate 250 g ai/ha,100
same,"Post-emerge Herbicidal Activity, phytotoxicity rating ABUTH",[10]; Rate 63 g ai/ha,30
same,"Post-emerge Herbicidal Activity, phytotoxicity rating ABUTH",[10]; Rate 250 g ai/ha,60
same,"Post-emerge Herbicidal Activity, phytotoxicity rating CHEAL",[11]; Rate 63 g ai/ha,99
same,"Post-emerge Herbicidal Activity, phytotoxicity rating CHEAL",[11]; Rate 250 g ai/ha,100
same,"Post-emerge Herbicidal Activity, phytotoxicity rating IPOHE",[12]; Rate 63 g ai/ha,30
same,"Post-emerge Herbicidal Activity, phytotoxicity rating IPOHE",[12]; Rate 250 g ai/ha,60
same,Post-emerge phytotoxicity rating CORN (crop damage),[13]; Rate 63 g ai/ha,20
same,Post-emerge phytotoxicity rating CORN (crop damage),[13]; Rate 250 g ai/ha,50
same,Post-emerge phytotoxicity rating RICE (crop damage),[14]; Rate 63 g ai/ha,10
same,Post-emerge phytotoxicity rating RICE (crop damage),[14]; Rate 250 g ai/ha,25
same,"Pre-emerge herbicidal activity, phytotoxicity rating AMARE",[15]; 63 g ai/ha,100
same,"Pre-emerge herbicidal activity, phytotoxicity rating AMARE",[15]; 250 g ai/ha,100
same,"Pre-emerge herbicidal activity, phytotoxicity rating SORHA",[16]; 63 g ai/ha,0
same,"Pre-emerge herbicidal activity, phytotoxicity rating SORHA",[16]; 250 g ai/ha,10
same,"Pre-emerge herbicidal activity, phytotoxicity rating DIGSA",[17]; 63 g ai/ha,0
same,"Pre-emerge herbicidal activity, phytotoxicity rating DIGSA",[17]; 250 g ai/ha,90
same,"Pre-emerge herbicidal activity, phytotoxicity rating SETVI",[18]; 63 g ai/ha,0
same,"Pre-emerge herbicidal activity, phytotoxicity rating SETVI",[18]; 250 g ai/ha,20
same,"Pre-emerge herbicidal activity, phytotoxicity rating CASOB",[19]; 63 g ai/ha,0
same,"Pre-emerge herbicidal activity, phytotoxicity rating CASOB",[19]; 250 g ai/ha,20
same,"Pre-emerge herbicidal activity, phytotoxicity rating AMBEL",[20]; 63 g ai/ha,0
same,"Pre-emerge herbicidal activity, phytotoxicity rating AMBEL",[20]; 250 g ai/ha,70
same,"Pre-emerge herbicidal activity, phytotoxicity rating ECHCG",[21]; 63 g ai/ha,0
same,"Pre-emerge herbicidal activity, phytotoxicity rating ECHCG",[21]; 250 g ai/ha,20
same,"Pre-emerge herbicidal activity, phytotoxicity rating ABUTH",[22]; 63 g ai/ha,40
same,"Pre-emerge herbicidal activity, phytotoxicity rating ABUTH",[22]; 250 g ai/ha,70
same,"Pre-emerge herbicidal activity, phytotoxicity rating CHEAL",[23]; 63 g ai/ha,100
same,"Pre-emerge herbicidal activity, phytotoxicity rating CHEAL",[23]; 250 g ai/ha,100
same,"Pre-emerge herbicidal activity, phytotoxicity rating IPOHE",[24]; 63 g ai/ha,0
same,"Pre-emerge herbicidal activity, phytotoxicity rating IPOHE",[24]; 250 g ai/ha,20
